The record followed here is paper PMC5613635 (Biochemistry and Biophysics Reports, 2016).

This experiment deals with T1, reconstituted TmAHAS (MI + MS) (Thermotoga maritima, UniProt Q9WZ18).
T1 sequence (Q9WZ18 1-584): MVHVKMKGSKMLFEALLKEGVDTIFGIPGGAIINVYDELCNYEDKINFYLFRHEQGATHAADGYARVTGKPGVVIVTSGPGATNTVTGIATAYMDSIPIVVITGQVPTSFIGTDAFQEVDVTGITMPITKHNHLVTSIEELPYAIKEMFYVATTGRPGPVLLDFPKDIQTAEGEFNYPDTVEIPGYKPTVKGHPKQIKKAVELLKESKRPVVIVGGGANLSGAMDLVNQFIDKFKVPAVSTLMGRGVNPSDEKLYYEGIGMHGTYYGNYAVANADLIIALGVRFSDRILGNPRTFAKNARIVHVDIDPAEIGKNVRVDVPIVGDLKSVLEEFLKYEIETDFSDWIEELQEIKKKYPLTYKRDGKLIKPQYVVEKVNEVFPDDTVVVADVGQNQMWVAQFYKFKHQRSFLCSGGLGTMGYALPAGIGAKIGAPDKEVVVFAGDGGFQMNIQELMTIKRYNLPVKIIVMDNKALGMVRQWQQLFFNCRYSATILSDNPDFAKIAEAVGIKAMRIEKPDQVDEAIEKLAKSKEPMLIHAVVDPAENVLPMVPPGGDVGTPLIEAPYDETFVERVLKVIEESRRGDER
T1 sequence (Q9WZ19 1-171 partner): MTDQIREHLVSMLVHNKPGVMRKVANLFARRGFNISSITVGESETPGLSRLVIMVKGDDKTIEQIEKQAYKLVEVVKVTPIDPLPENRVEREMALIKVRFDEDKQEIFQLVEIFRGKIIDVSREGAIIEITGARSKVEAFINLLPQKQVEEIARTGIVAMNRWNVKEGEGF
The experiment can be described thus: acetaldehyde. The experiment is classed as biochemical. Particulars: reconstituted catalytic and regulatory subunits; 80 °C, anaerobic.

For `CC(=O)C(=O)O` [pyruvate], the “acetaldehyde (PDC) and acetolactate (AHAS) production from pyruvate” value was “The reconstitution of the enzyme TmAHAS resulted in considerable and reproducible increase of both PDC”.
